# Data published in PubChem BioAssay (NCI).
# Values joined by “and” are separate entries in the source; they are usually repeats but may differ in a detail not shown here. Equal values may be shown once.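 Interpolation was linear, between the two tested concentrations surrounding the appropriate level; five concentrations were tested over 48 hours in 96-well plates. The concentration for 50% growth inhibition is given as GI50. TGI: concentration producing complete growth inhibition.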
# Key:
# Assay in all cases: growth of human tumour cells (NCI), 48 h
# 786-0 renal = tested on: 786-0 renal
# NCI-H226 lung = tested on: NCI-H226 lung
# HOP-92 NSCLC = tested on: HOP-92 NSCLC
# OVCAR-3 ovarian = tested on: OVCAR-3 ovarian
# SR leukemia = tested on: SR leukemia
# MALME-3M melanoma = tested on: MALME-3M melanoma
# NCI/ADR-RES ovarian = tested on: NCI/ADR-RES ovarian
# RPMI-8226 leukemia = tested on: RPMI-8226 leukemia
# PC-3 prostate = tested on: PC-3 prostate
# MDA-N = tested on: MDA-N
# KM12 colon = tested on: KM12 colon
# OVCAR-5 ovarian = tested on: OVCAR-5 ovarian
# IGROV1 ovarian = tested on: IGROV1 ovarian
# NCI-H23 lung = tested on: NCI-H23 lung
# COLO 205 colon = tested on: COLO 205 colon
# HL-60(TB) leukemia = tested on: HL-60(TB) leukemia
# HCT-116 colon = tested on: HCT-116 colon
# UO-31 renal = tested on: UO-31 renal
# SK-MEL-5 melanoma = tested on: SK-MEL-5 melanoma
# SNB-75 CNS = tested on: SNB-75 CNS
# EKVX NSCLC = tested on: EKVX NSCLC
# NCI-H522 lung = tested on: NCI-H522 lung
# HT29 colon = tested on: HT29 colon
# UACC-257 melanoma = tested on: UACC-257 melanoma
# MDA-MB-435 = tested on: MDA-MB-435
# OVCAR-4 ovarian = tested on: OVCAR-4 ovarian
# CCRF-CEM leukemia = tested on: CCRF-CEM leukemia
# M14 melanoma = tested on: M14 melanoma
# HCC-2998 colon = tested on: HCC-2998 colon
# MCF7 breast = tested on: MCF7 breast
# UACC-62 melanoma = tested on: UACC-62 melanoma
# SF-268 CNS = tested on: SF-268 CNS
# SK-OV-3 ovarian = tested on: SK-OV-3 ovarian
# DU-145 prostate = tested on: DU-145 prostate
# MOLT-4 leukemia = tested on: MOLT-4 leukemia
# U251 CNS = tested on: U251 CNS
# HCT-15 colon = tested on: HCT-15 colon
# SK-MEL-2 melanoma = tested on: SK-MEL-2 melanoma
# SF-539 CNS = tested on: SF-539 CNS
# A498 renal = tested on: A498 renal
# ACHN renal = tested on: ACHN renal
# OVCAR-8 ovarian = tested on: OVCAR-8 ovarian
# SK-MEL-28 melanoma = tested on: SK-MEL-28 melanoma
# LOX IMVI melanoma = tested on: LOX IMVI melanoma
# SNB-19 CNS = tested on: SNB-19 CNS
# BT-549 breast = tested on: BT-549 breast
# TK-10 renal = tested on: TK-10 renal
# A549 NSCLC = tested on: A549 NSCLC
# NCI-H460 lung = tested on: NCI-H460 lung
# HS 578T breast = tested on: HS 578T breast
# T-47D breast = tested on: T-47D breast
# RXF 393 renal = tested on: RXF 393 renal
# SF-295 CNS = tested on: SF-295 CNS
# HOP-62 NSCLC = tested on: HOP-62 NSCLC
# K-562 leukemia = tested on: K-562 leukemia
# SN12C renal = tested on: SN12C renal
# SW-620 colon = tested on: SW-620 colon
smiles,measurement,setting,value
CC(=O)OC12CC(C)C3(O)C4C=C(C)C(=O)[C@@]4(O)CC(CO)=C[C@H]3C1C2(C)C (stereo partly specified),GI50,786-0 renal,> 1 mM
same,TGI,786-0 renal,> 1000 µM
same,GI50,NCI-H226 lung,> 1 mM
same,TGI,NCI-H226 lung,> 1000 µM
same,GI50,HOP-92 NSCLC,45.4 µM
same,TGI,HOP-92 NSCLC,> 1000 µM
same,GI50,OVCAR-3 ovarian,> 1 mM
same,TGI,OVCAR-3 ovarian,> 1000 µM
same,GI50,SR leukemia,> 1 mM
same,TGI,SR leukemia,> 1 mM
same,GI50,MALME-3M melanoma,> 1 mM
same,TGI,MALME-3M melanoma,> 1000 µM
same,GI50,NCI/ADR-RES ovarian,> 1 mM
same,TGI,NCI/ADR-RES ovarian,> 1 mM
same,GI50,RPMI-8226 leukemia,> 1 mM
same,TGI,RPMI-8226 leukemia,> 1 mM
same,GI50,PC-3 prostate,228 nM
same,TGI,PC-3 prostate,> 1000 µM
same,GI50,MDA-N,239 nM
same,GI50,KM12 colon,> 1 mM
same,TGI,KM12 colon,> 1000 µM
same,GI50,OVCAR-5 ovarian,> 1 mM
same,TGI,OVCAR-5 ovarian,> 1000 µM
same,GI50,IGROV1 ovarian,> 1 mM
same,TGI,IGROV1 ovarian,> 1000 µM
same,GI50,NCI-H23 lung,> 1 mM
same,TGI,NCI-H23 lung,> 1000 µM
same,GI50,COLO 205 colon,522 nM and 903 nM
same,GI50,HL-60(TB) leukemia,432 nM and 751 nM
same,TGI,HL-60(TB) leukemia,> 1 mM
same,GI50,HCT-116 colon,> 1 mM
same,TGI,HCT-116 colon,> 1000 µM
same,GI50,UO-31 renal,> 1 mM
same,TGI,UO-31 renal,> 1000 µM
same,GI50,SK-MEL-5 melanoma,33.4 µM
same,TGI,SK-MEL-5 melanoma,> 1000 µM
same,GI50,SNB-75 CNS,> 1 mM
same,TGI,SNB-75 CNS,> 1000 µM
same,GI50,EKVX NSCLC,> 1 mM
same,TGI,EKVX NSCLC,> 1000 µM
same,GI50,NCI-H522 lung,> 1 mM
same,TGI,NCI-H522 lung,> 1 mM
same,GI50,HT29 colon,> 1 mM
same,TGI,HT29 colon,> 1000 µM
same,GI50,UACC-257 melanoma,> 1 mM
same,TGI,UACC-257 melanoma,> 1000 µM
same,GI50,MDA-MB-435,205 nM
same,GI50,OVCAR-4 ovarian,> 1 mM
same,TGI,OVCAR-4 ovarian,> 1 mM
same,TGI,CCRF-CEM leukemia,> 1000 µM
same,GI50,M14 melanoma,> 1 mM
same,TGI,M14 melanoma,> 1000 µM
same,GI50,HCC-2998 colon,2350 nM
same,GI50,MCF7 breast,> 1 mM
same,TGI,MCF7 breast,> 1000 µM
same,TGI,UACC-62 melanoma,> 1000 µM
same,GI50,SF-268 CNS,> 1 mM
same,TGI,SF-268 CNS,> 1000 µM
same,TGI,SK-OV-3 ovarian,> 1000 µM
same,GI50,DU-145 prostate,> 1 mM
same,TGI,DU-145 prostate,> 1000 µM
same,TGI,MOLT-4 leukemia,> 1000 µM
same,GI50,U251 CNS,> 1 mM
same,TGI,U251 CNS,> 1000 µM
same,GI50,HCT-15 colon,> 1 mM
same,TGI,HCT-15 colon,> 1000 µM
same,GI50,SK-MEL-2 melanoma,> 1 mM
same,TGI,SK-MEL-2 melanoma,> 1 mM
same,GI50,SF-539 CNS,> 1 mM
same,TGI,SF-539 CNS,> 1000 µM
same,GI50,A498 renal,346 nM
same,GI50,ACHN renal,> 1 mM
same,TGI,ACHN renal,> 1000 µM
same,GI50,OVCAR-8 ovarian,> 1 mM
same,TGI,OVCAR-8 ovarian,> 1000 µM
same,GI50,SK-MEL-28 melanoma,> 1 mM
same,TGI,SK-MEL-28 melanoma,> 1000 µM
same,GI50,LOX IMVI melanoma,> 1 mM
same,TGI,LOX IMVI melanoma,> 1000 µM
same,GI50,SNB-19 CNS,> 1 mM
same,TGI,SNB-19 CNS,> 1000 µM
same,GI50,BT-549 breast,> 1 mM
same,TGI,BT-549 breast,> 1000 µM
CCCCCCOc1ccc(NC2=C(Cl)C(=O)c3ncccc3C2=O)cc1,TGI,TK-10 renal,> 10 µM
same,TGI,A549 NSCLC,8.96 µM
same,TGI,786-0 renal,5.75 µM
same,TGI,NCI-H226 lung,> 10 µM
same,TGI,NCI-H460 lung,3.18 µM
same,TGI,HOP-92 NSCLC,> 10 µM
same,TGI,OVCAR-3 ovarian,6.25 µM
same,TGI,MALME-3M melanoma,3.77 µM
same,TGI,HS 578T breast,9 µM
same,TGI,PC-3 prostate,3.97 µM
same,TGI,MDA-N,2970 nM
same,TGI,KM12 colon,3.14 µM
same,TGI,OVCAR-5 ovarian,> 10 µM
same,TGI,IGROV1 ovarian,7.85 µM
same,TGI,NCI-H23 lung,4.34 µM
same,TGI,T-47D breast,4.03 µM
same,TGI,HCT-116 colon,2.38 µM
same,TGI,UO-31 renal,2.72 µM
same,TGI,SK-MEL-5 melanoma,2.92 µM
same,TGI,SNB-75 CNS,3.93 µM
same,TGI,EKVX NSCLC,> 10 µM
same,TGI,RXF 393 renal,3.7 µM
same,TGI,HT29 colon,> 10 µM
same,TGI,SF-295 CNS,3.59 µM
same,TGI,UACC-257 melanoma,4.54 µM
same,TGI,MDA-MB-435,3.27 µM
same,TGI,CCRF-CEM leukemia,5.96 µM
same,TGI,M14 melanoma,4.04 µM
same,TGI,HOP-62 NSCLC,3.88 µM
same,TGI,MCF7 breast,2.63 µM
same,TGI,UACC-62 melanoma,2.75 µM
same,TGI,SF-268 CNS,4.07 µM
same,TGI,K-562 leukemia,> 10 µM
same,TGI,SK-OV-3 ovarian,> 10 µM
same,TGI,DU-145 prostate,2.83 µM
same,TGI,MOLT-4 leukemia,> 10 µM
same,TGI,SN12C renal,3.12 µM
same,TGI,U251 CNS,3.08 µM
same,TGI,SW-620 colon,5.38 µM
same,TGI,HCT-15 colon,4.64 µM
same,TGI,SF-539 CNS,3.3 µM
same,TGI,A498 renal,> 10 µM
same,TGI,ACHN renal,> 10 µM
same,TGI,OVCAR-8 ovarian,> 10 µM
same,TGI,SK-MEL-28 melanoma,3.04 µM
same,TGI,LOX IMVI melanoma,4.15 µM
same,TGI,SNB-19 CNS,4.51 µM
same,TGI,BT-549 breast,3.56 µM
